This is an account of results in publication PMC3681751, “Identification of a Novel Antimicrobial Peptide from Human Hepatitis B Virus Core Protein Arginine-Rich Domain (ARD)” (PLoS Pathogens, 2013).

Usually MBC stands for the smallest concentration meeting the test's criterion for killing.

The test system of data set [1] is K. pneumonia (ATCC 13884). Format: cell-based, Klebsiella pneumoniae.
Data set [2] has as its system P. aeruginosa (ATCC 27853). Format: cell-based, Pseudomonas aeruginosa. On the procedure:
(§1) The antimicrobial activities of HBc ARD peptides were tested using a number of bacterial strains from ATCC, including Pseudomonas aeruginosa Migula strain (ATCC 27853, ampicillin-resistant), Pseudomonas aeruginosa Migula strain (ATCC 9027, ampicillin-resistant), Klebsiella pneumoniae strain (ATCC 17593), Escherichia coli strain (ATCC 25922), Staphylococcus aureus subsp. strain (ATCC 25923, methicillin-resistant), Staphylococcus aureus subsp. strain (ATCC 29213, methicillin-resistant), Staphylococcus aureus subsp. strain (ATCC 19636, methicillinresistant), and Candida albicans strain (ATCC 10231).
(§2) All peptides were purchased from Yao-Hong Biotechnology Inc. (Taipei, Taiwan). Vendors provided data of peptide characterizations, including HPLC and Mass (data not shown). Antimicrobial activity was determined as described with some modifications as detailed below. Bacteria were grown overnight in Mueller–Hinton broth (Difco) at 37°C, and during the mid-logarithmic phase, bacteria were diluted to 10^6 CFU (colony formation unit)/ml in phosphate buffer (10 mM sodium phosphate and 50 mM sodium chloride, pH 7.2). Peptides were serially diluted in the same buffer. Fifty microliter (µl) of bacteria was mixed with fifty µl of peptides at varying concentrations followed by incubation at 37°C for 3 hours without shaking. At the end of incubation, bacteria were placed on Mueller-Hinton broth agar plates, and allowed growth at 37°C overnight for measurement of minimal bactericidal concentration (MBC). […] All peptides were tested in triplicate.

For data set [3], the system named is P. aeruginosa (ATCC 9027). Type of data set: cell-based, Pseudomonas aeruginosa. The method, then: as §1, §2
The subject of data set [4] is P. aeruginosa. Nature of the data set: SYTOX Green uptake (membrane permeabilization). Type of data set: cell-based, Pseudomonas aeruginosa. The settings on record: 0.5, 1 and 2 µM, dose-dependent; triplicates. On the procedure: Briefly, bacteria (10^7 CFU) were prepared and mixed with 1 µM SYTOX Green (Invitrogen) for 15 minutes in the dark. […] Melittin (Sigma), the major toxin of bee venom, was used as a positive control to provide maximal permeabilization.

Data set [5] has as its system E. coli (ATCC 25922). Type of data set: cell-based, Escherichia coli. The settings on record: 3 h at 37°C in phosphate buffer pH 7.2; triplicate. On the procedure:
as §1, §2

Data set [6] deals with A. baumannii ATCC17978. Type of data set: cell-based, Acinetobacter baumannii. Conditions: Reference strain; colistin susceptibility by broth-dilution (CLSI).
Source text: (§3) Clinical isolates of Pseudomonas aeruginosa (NHRI-01, NHRI-02 and NHRI-04) were obtained through the program of Taiwan Surveillance of Antimicrobial Resistance (TSAR), National Health Research Institutes (NHRI), Taiwan. Acinetobacter baumannii (ATCC 17989, ATCC 17978 CR, ATCC19606, ATCC 19606 CR, TCGH 45530 and TCGH 46709) were obtained from Tzu-Chi Buddhist General Hospital (TCGH) in Taiwan, and clinical isolates (TCGH 45530 and TCGH 46709) were identified using the Vitek system (Biomerieux Vitek, Inc., Hazelwood, MO, USA). A. baumannii is defined as multidrug-resistant, when the organism is resistant to piperacillin, piperacillin-tazobactam, ampicillin/sulbactam, imipenem, ceftazidime, gentamicin, amikacin, tetracycline, chloramphenicol, ciprofloxacin, and cotrimoxazole. Susceptibility to colistin was determined using the broth-dilution method, in accordance with the guidelines of the Clinical and Laboratory Standards Institute (CLSI).
as §2

The test system of data set [7] is A. baumannii ATCC19606 CR. Format: cell-based, Acinetobacter baumannii. The settings on record: Induced Colistin resistant strain; colistin susceptibility by broth-dilution (CLSI).
Source text: as §3, §2

The test system of data set [8] is A. baumannii ATCC17978 CR. Type of data set: cell-based, Acinetobacter baumannii. The settings on record: Induced Colistin resistant strain; colistin susceptibility by broth-dilution (CLSI).
Source text: as §3, §2

For data set [9], the system named is A. baumannii TCGH45530. Format: cell-based, Acinetobacter baumannii. The settings on record: Clinical isolate, multidrug resistance; colistin susceptibility by broth-dilution (CLSI).
Source text: as §3, §2

For data set [10], the system named is A. baumannii ATCC19606. Type of data set: cell-based, Acinetobacter baumannii. The settings on record: Reference strain; colistin susceptibility by broth-dilution (CLSI).
Source text: as §3, §2

Data set [11] deals with A. baumannii TCGH46709. Format: cell-based, Acinetobacter baumannii. The settings on record: Clinical isolate, multidrug resistance; colistin susceptibility by broth-dilution (CLSI).
Source text: as §3, §2

Data set [12] concerns P. aeruginosa NHRI-02. Type of data set: cell-based, Pseudomonas aeruginosa. The settings on record: Colistin sensitive strain; colistin susceptibility by broth-dilution (CLSI).
Source text: as §3, §2

Data set [13] has as its system P. aeruginosa NHRI-01. Type of data set: cell-based, Pseudomonas aeruginosa. The settings on record: Colistin resistant strain; colistin susceptibility by broth-dilution (CLSI).
Source text: as §3, §2

For data set [14], the system named is P. aeruginosa NHRI-04. Type of data set: cell-based, Pseudomonas aeruginosa. Conditions: Colistin sensitive strain; colistin susceptibility by broth-dilution (CLSI).
Source text: as §3, §2

Data set [15] relates to HepG2 cells. Briefly: Peptide uptake into mammalian cells. Type of data set: cell-based, human. Conditions: peptide added to the medium of HepG2 cells. The method, then:
To set up CFSE cell proliferation assay, 293 cells (human kidney origin) and Vero cells (monkey kidney origin) were resuspended in PBS to a final concentration of 10^6 cells/ml, before incubation with 10 µM CFSE dye (CellTrace CFSE cell proliferation kit, Invitrogen) at 37°C for 10 min. To quench the staining, ice-old culture media were then added and incubated on ice for 5 min. Labeled cells were then pelleted and washed three times by fresh medium containing 10% FBS before seeding into six well plates at a density of 3.3×10^5cells/well. After 20 h, the medium was removed and incubated with fresh medium containing 5, 25 and 100 µM HBc 147-183 for one hour (FITC-labeled ARD peptide had been largely internalized in 10 minutes after the addition of ARD peptides to the medium of HepG2 cells). Forty-eight hours later, cells were harvested and analyzed by flow cytometry (FACSCanto, BD Bioscience).

The mark [16] stands for this setting: ampicillin-resistant strain, 3 h at 37°C in phosphate buffer pH 7.2, triplicate.

In brackets after ≈: the same amount, converted by molar mass. Like-named read-outs stand apart in the source and are kept apart here. Positions of bridges follow the written chain, without caps; N, C: chain ends. Non-standard residues stand in square brackets, D forms with d. Residues, ends and D or L forms follow the SMILES beside them. No end group written: not given here. *: point of attachment. X1 = CC[C@H](C)CCCCC(=O)*; Dab = NCC[C@H](N)C(=O)O

On to `C[C@@H](O)[C@H](NC(=O)[C@H](CCCNC(=N)N)NC(=O)[C@H](CCCNC(=N)N)NC(=O)[C@H](CCCNC(=N)N)NC(=O)[C@@H]1CCCN1C(=O)[C@H](CO)NC(=O)[C@H](CCCNC(=N)N)NC(=O)CN)C(=O)N1CCC[C@H]1C(=O)N[C@@H](CO)C(=O)N1CCC[C@H]1C(=O)N[C@@H](CCCNC(=N)N)C(=O)N[C@@H](CCCNC(=N)N)C(=O)N[C@@H](CCCNC(=N)N)C(=O)N[C@@H](CCCNC(=N)N)C(=O)N[C@@H](CO)C(=O)N[C@@H](CCC(N)=O)C(=O)N[C@@H](CO)C(=O)N1CCC[C@H]1C(=O)N[C@@H](CCCNC(=N)N)C(=O)N[C@@H](CCCNC(=N)N)C(=O)N[C@@H](CCCNC(=N)N)C(=O)N[C@@H](CCCNC(=N)N)C(=O)N[C@@H](CO)C(=O)O` [HBc153-176] (H-GRSPRRRTPSPRRRRSQSPRRRRS-OH; N-terminus and C-terminus assumed), for which the “Antimicrobial activity, MBC” value in data set [1] (3 h at 37°C in phosphate buffer pH 7.2, triplicate) is above 96 µg/mL; in data set [1] (ATCC 13884, 3 h, pH 7.2), above 32 µM; in [2] (ATCC 27853, 3 h, pH 7.2), 1 to 2 µM; in data set [2] (setting [16]), 3 to 6 µg/mL; in [3] (ATCC 9027, 3 h, pH 7.2), 1 to 2 µM; in data set [3] (setting [16]), 3 to 6 µg/mL. For the same compound, the “Antimicrobial activity, MBC” value in data set [5] was 48 µg/mL. The “MBC against P. aeruginosa” value in data set [3] (summary over the P. aeruginosa strains of Table 1 (ATCC 9027, ATCC 27853)) is “strong activity”. In [4], the “Time to membrane permeabilization (SYTOX Green uptake)” value was at most 10 min.
As to `CC[C@H](C)CCCCC(=O)N[C@@H](CCN)C(=O)N[C@H](C(=O)N[C@@H](CCN)C(=O)N[C@H]1CCNC(=O)[C@H]([C@@H](C)O)NC(=O)[C@H](CCN)NC(=O)[C@H](CCN)NC(=O)[C@H](CC(C)C)NC(=O)[C@@H](CC(C)C)NC(=O)[C@H](CCN)NC1=O)[C@@H](C)O` [Colistin] (X1-[Dab]T[Dab][Dab][Dab][dL]L[Dab][Dab]T; lactam 4-C (inferred); N-terminus assumed), the MBC in [6] is 4 µg/mL (≈ 3.42 µM); in data set [7], 8 µg/mL (≈ 6.84 µM); in data set [8], above 8 µg/mL; in data set [9], above 8 µg/mL; in [10] it was 2 µg/mL (≈ 1.71 µM); in [11], above 8 µg/mL. Besides, the MBC was 4 µg/mL (≈ 3.42 µM) in [12], above 8 µg/mL in data set [13] and 4 µg/mL (≈ 3.42 µM) in [14].
In the case of `CC[C@H](C)CCCCC(=O)N[C@@H](CCN)C(=O)N[C@H](C(=O)N[C@@H](CCN)C(=O)N[C@H]1CCNC(=O)[C@H]([C@@H](C)O)NC(=O)[C@H](CCN)NC(=O)[C@H](CCN)NC(=O)[C@H](CC(C)C)NC(=O)[C@@H](Cc2ccccc2)NC(=O)[C@H](CCN)NC1=O)[C@@H](C)O` [Polymyxin B] (X1-[Dab]T[Dab][Dab][Dab][dF]L[Dab][Dab]T; lactam 4-C (inferred); N-terminus assumed), the minimal bactericidal concentration (MBC) was 4 µg/mL (≈ 3.32 µM) in data set [6]; above 8 µg/mL in [7]; 8 µg/mL (≈ 6.65 µM) in data set [8]; 8 µg/mL (≈ 6.65 µM) in data set [9]; 2 µg/mL (≈ 1.66 µM) in data set [10]; above 8 µg/mL in data set [11]. The MBC came out at 2 µg/mL (≈ 1.66 µM) in data set [12], 4 µg/mL (≈ 3.32 µM) in [13] and 2 µg/mL (≈ 1.66 µM) in data set [14].
Take “FITC-labeled HBc147-183: FITC-labeled HBc147-183 used for localization by confocal microscopy (TVVRRRGRSPRRRTPSPRRRRSQSPRRRRSQSRESQC; also: FITC label, place not given here; UniProt P03147 147-183, looked up, fragment)”: the “Time after which peptide was largely internalized” value in [15] came to 10 min.
